Patent publication US9351983B2, “Use of glycerophosphoinositols for the treatment of septic shock” (CONSIGLIO NAZIONALE DELLE RICERCHE, priority 2012, dated 2016)

Experiments:
[1] = tested on: ERK1/2; experiment: Western blotting of phosphorylated ERK1/2 in LPS-stimulated monocytes; format: cell-based, human; conditions: 300 μM, 0.1 μg/ml LPS for 1 h
Method: Monocytes from healthy donors were incubated at 37° C. for 20 min without or with 300 μM GroPIns or GroPIns4P, and for an additional 1 h in the absence and presence of 0.1 μg/ml LPS from E. coli. Resentative Western blots are shown, as resolved using 10% SDS-PAGE, showing phosphorylated (p-) and total levels of p38 and ERK1/2. All of the blots were representative of at least three independent experiments.
(§1) Protein extracts were analysed by Western blotting by the following procedures. The nitrocellulose filters containing the proteins of interest were incubated in the blocking solution for Western blotting plus 3% bovine serum albumin (BSA) or 5% milk powder (Fluka, Switzerland) for 1 h at room temperature, and then with the primary antibody diluted to its working concentration (see Table 2) in the blocking solution for Western blotting (plus BSA or milk powder). After a 2-4 h incubation at room temperature, or an overnight (O/N) incubation at 4° C., the antibody was removed and the strips were washed twice in Tween®/Tris-buffered salt solution (TTBS), for 15 min each. […] After washing the strips were incubated with the enhanced luminescence (ECL) reagents (Amersham Pharmacia Biotech, NJ, USA), according to the manufacturer instructions, and protein signals were detect by autoradiography using Kodak film.

[2] = tested on: LPS-activated tissue-factor (TF) activity in human monocytes; experiment: Pro-coagulant activity of tissue factor (one-stage clotting time) in LPS-stimulated human monocytes; format: cell-based; conditions: for time at which inhibition of LPS-mediated TF activity is evident: 0.1 μg/ml LPS, 5 h versus 24 h (FIG. 2); for tissue-factor activity (pro-coagulant activity, one-stage clotting time): 50 μM to 300 μM, then 0.1 μg/ml LPS for 5 h and 24 h (FIG. 2)
Method: FIG. 2—The glycerophosphoinositols inhibit LPS-activated tissue-factor activity in human monocytes. Human monocytes were purified from peripheral blood of healthy donors and incubated at 37° C. for 20 min without or with different concentrations (from 50 μM to 300 μM) GroPIns or GroPIns4P, and for a further 5 h and 24 h in the absence and in presence of 0.1 μg/ml LPS from E. coli. […] Data are means (±SD) of three independent experiments performed with cells from different donors. Asterisks indicate statistically significant differences (*p=0.015; **p<0.005; ***p=0.0003) versus their respective controls. As shown, pro-coagulant activity was not detectable in untreated monocytes, and it was induced in a time-dependent manner by LPS stimulation.
The glycerophosphoinositol, differently from the PLA2IVα inhibitor, inhibits LPS-activated tissue-factor activity in human monocytes. Human monocytes were purified from peripheral blood of two healthy donors (experiment I and II) and pre-incubated at 37° C. for 20 min without (black line) or with 300 μM glycerophosphoinositol (GroPIns, blue line) or 0.5 μM PLA2IVα inhibitor (pyrrophenone, Pf, red line), and for a further 24 h in the absence or presence of increasing concentrations of LPS from E. coli (endotoxin).
The glycerophosphoinositol inhibits in a dose-dependent manner LPS-activated tissue-factor activity in human monocytes. Human monocytes were purified from peripheral blood of three healthy donors (experiments III, IV and V) and pre-incubated at 37° C. for 20 min without or with increasing concentrations of glycerophosphoinositol (GroPIns) and for a further 24 h in the absence or presence of 10 ng/ml of LPS from E. coli (endotoxin). […] The two insets in Exp IV and V show the pro-coagulant activity of tissue factor, assessed in cells stimulated by 10 ng/ml of endotoxin, with (filled bars) or without (dotted bars) 20 min pre-incubation at 37° C., in absence (Control) or in presence of 300 μM GroPIns.
The glycerophosphoinositols inhibit LPS-activated tissue-factor activity in human monocytes.
Human monocytes were obtained from whole blood collected from healthy donors (informed consent was obtained) and anticoagulated with 0.1 vol 3.8% sodium citrate/0.15 mol/l NaCl. The leukocytes were sedimented at 180×g for 15 min at 10° C. The sedimented cells were diluted to the initial volume with citrate-saline and sedimented again. This step was repeated to minimise platelet contamination. The cells were then layered onto Lymphoprep™, and centrifuged at 700×g for 20 min at 20° C. The ring of mononuclear cells was collected and sedimented at 620×g for 7 min at 8° C. The pellet was resuspended in citrate-saline and the cells were washed twice. Monocytes were purified using a discontinuous Percoll™ density gradient; the mononuclear cell preparation was resuspended in RPMI-1640 medium supplemented with 10% heat-inactivated foetal calf serum, and was layered onto a 46% isosmotic Percoll™ solution. After centrifugation at 20° C. for 30 min at 550×g, the cells at the RPMI-1640 medium/Percoll™ interface were collected and sedimented at 620×g. The pellet was resuspended in citrate-saline and the cells were washed twice. The final monocyte preparation was then resuspended in serum-free RPMI-1640 at the concentration required.
The pro-coagulant activity of tissue factor (TF activity) was measured in cell lysates according to one-stage clotting time [as reported in (Evangelista et al., Thromb Haemost. 2005; 94, 568-577)]. One hundred μl of cell lysates were added to 100 μl of 37° C. prewarmed normal human plasma. After 30 s, 100 μl 20 mM CaCl2 were added to the mixture and the clotting time was determined using a KC4A Amellung Coagulometer (Mascia Brunelli, Milan, Italy). The data were then converted in arbitrary units by interpolation with a standard curve generated with serial dilutions of human recombinant thromboplastin (Hemoliance, Instrumentation Laboratory).

[3] = tested on: LPS-induced degradation of I-κBα; experiment: Western blotting of I-κBα in LPS-stimulated monocytes; format: cell-based, human; conditions: 300 μM, 0.1 μg/ml LPS for 1 h
Method: Monocytes were incubated at 37° C. for 20 min without or with 300 μM GroPIns or GroPIns4P, and for a further 1 h in the absence and presence of 0.1 μg/ml LPS. After stimulation, the cells were lysed and expression levels of I-κBα were analysed. Proteins were resolved using 10% SDS-PAGE and were probed by Western blotting, using a polyclonal anti-I-κBα antibody. The data are representative of four experiments performed with monocytes isolated from peripheral blood of different donors.
as §1

[4] = 300 μM, endotoxin 10 ng/ml for 24 h (FIG. 12)

O=P(O)(OCC(O)CO)OC1C(O)C(O)C(O)C(O)C1O (stereo not shown) [GroPIns, glycerophosphoinositol]
phosphorylation level of ERK1/2 [1]: did not affect the phosphorylation levels | time at which inhibition of LPS-mediated TF activity is evident [2]: mainly evident at long times (24 h) | tissue-factor activity (pro-coagulant activity, one-stage clotting time) ([2]; 20 min pre-incubation): dose-dependent reduction in tissue-factor activity | TF activity ([2]; 300 μM, 20 min pre-incubation, increasing concentrations of endotoxin for 24 h (FIG. 10)): reduces TF activity | TF activity [2, 4]: reduce TF activity | TF activity ([2]; increasing concentrations of compound, endotoxin 10 ng/ml for 24 h (FIG. 11)): dose-dependently reduces TF activity | effect on LPS-induced degradation of I-κBα [3]: did not affect this LPS activity

O=P(O)(O)OC1[C@@H](O)[C@H](O)C(OP(=O)(O)OCC(O)CO)[C@@H](O)[C@H]1O (stereo partly shown) [GroPIns4P, glycerophosphoinositol 4-phosphate]
phosphorylation level of ERK1/2 [1]: did not affect the phosphorylation levels | time at which inhibition of LPS-mediated TF activity is evident [2]: already effective at shorter times (5 h) | tissue-factor activity (pro-coagulant activity, one-stage clotting time) ([2]; 20 min pre-incubation): dose-dependent reduction in tissue-factor activity | TF activity [2, 4]: reduce TF activity | efficacy in reducing TF activity compared with GroPIns [2, 4]: higher efficacy than GroPIns | effect on LPS-induced degradation of I-κBα [3]: did not affect this LPS activity
